Results taken from patent publication US11419881B2, “Treatment of migraine” (priority 2019, dated 2022).
Like-named read-outs stand apart in the source and are kept apart here.

Key:
[1] = Reproductive toxicity studies in pregnant rabbits; assay type: in vivo; conditions: intravenous up to 2.5 mg/kg/day during organogenesis
[2] = system: nasal chemosensory mucosa; assay: Electrogram from the nasal chemosensory mucosa of human volunteers; assay type: in vivo
Protocol: (§1) The half effective dose of this effect was 0.087 μg.

[3] = in vivo
progestin receptors = target: T1, progestin receptors (Homo sapiens, UniProt P06401); assay: In vitro agonist/antagonist activity on progestin receptors; assay type: biochemical
T1 sequence (P06401 1-933): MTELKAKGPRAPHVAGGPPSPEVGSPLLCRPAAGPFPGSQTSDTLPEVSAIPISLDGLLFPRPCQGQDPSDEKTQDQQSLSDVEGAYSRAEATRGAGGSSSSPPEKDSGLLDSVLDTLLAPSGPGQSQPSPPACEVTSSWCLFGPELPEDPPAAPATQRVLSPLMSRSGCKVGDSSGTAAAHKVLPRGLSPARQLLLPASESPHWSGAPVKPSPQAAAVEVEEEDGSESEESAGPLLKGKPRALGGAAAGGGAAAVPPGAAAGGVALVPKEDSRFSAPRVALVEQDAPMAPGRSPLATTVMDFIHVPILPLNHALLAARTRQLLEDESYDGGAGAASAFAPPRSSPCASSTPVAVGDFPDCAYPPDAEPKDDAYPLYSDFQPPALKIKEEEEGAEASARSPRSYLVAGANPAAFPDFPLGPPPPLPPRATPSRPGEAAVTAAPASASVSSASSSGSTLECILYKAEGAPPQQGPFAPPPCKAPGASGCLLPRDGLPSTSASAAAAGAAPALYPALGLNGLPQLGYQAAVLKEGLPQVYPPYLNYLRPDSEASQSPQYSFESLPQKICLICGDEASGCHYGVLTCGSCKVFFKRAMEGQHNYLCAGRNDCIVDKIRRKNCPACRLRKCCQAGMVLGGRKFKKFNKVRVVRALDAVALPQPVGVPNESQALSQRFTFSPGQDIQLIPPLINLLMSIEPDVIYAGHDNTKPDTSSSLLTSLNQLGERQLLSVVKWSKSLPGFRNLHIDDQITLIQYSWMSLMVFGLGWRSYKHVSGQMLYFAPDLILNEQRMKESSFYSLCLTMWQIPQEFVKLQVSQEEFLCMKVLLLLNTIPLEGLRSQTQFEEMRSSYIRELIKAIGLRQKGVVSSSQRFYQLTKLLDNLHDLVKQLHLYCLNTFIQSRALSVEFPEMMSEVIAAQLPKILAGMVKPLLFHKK

androgen receptors = target: T2, androgen receptors (Homo sapiens, UniProt P10275); assay: In vitro agonist/antagonist activity on androgen receptors; assay type: biochemical
T2 sequence (P10275 1-920): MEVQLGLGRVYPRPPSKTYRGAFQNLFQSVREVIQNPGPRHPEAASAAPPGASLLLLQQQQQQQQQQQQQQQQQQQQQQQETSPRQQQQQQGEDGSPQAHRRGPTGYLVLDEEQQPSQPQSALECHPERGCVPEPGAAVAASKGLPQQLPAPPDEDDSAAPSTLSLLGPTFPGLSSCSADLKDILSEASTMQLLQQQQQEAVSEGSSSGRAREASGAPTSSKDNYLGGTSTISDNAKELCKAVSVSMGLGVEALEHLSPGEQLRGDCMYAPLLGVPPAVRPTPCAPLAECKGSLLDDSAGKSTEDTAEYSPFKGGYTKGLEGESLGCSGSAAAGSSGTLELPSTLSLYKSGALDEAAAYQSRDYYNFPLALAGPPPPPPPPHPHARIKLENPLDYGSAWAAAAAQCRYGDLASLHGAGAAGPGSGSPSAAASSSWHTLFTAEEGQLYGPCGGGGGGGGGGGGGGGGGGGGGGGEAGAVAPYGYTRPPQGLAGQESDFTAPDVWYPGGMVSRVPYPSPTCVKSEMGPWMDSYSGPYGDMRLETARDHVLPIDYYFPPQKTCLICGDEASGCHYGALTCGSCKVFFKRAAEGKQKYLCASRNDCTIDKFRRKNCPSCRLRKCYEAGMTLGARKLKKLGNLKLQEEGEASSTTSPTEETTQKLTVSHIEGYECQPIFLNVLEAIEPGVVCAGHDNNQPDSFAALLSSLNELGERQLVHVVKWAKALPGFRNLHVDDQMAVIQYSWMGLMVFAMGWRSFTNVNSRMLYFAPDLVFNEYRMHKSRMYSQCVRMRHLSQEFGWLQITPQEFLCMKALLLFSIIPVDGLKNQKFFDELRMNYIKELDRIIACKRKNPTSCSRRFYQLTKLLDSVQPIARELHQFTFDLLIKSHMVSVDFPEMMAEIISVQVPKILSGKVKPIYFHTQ

[4] = Acute and multidose (28 day) toxicity studies, nasal and intravenous; assay type: in vivo, rats, mice, rabbits and dogs
estrogen receptors = assay: In vitro agonist/antagonist activity on estrogen receptors; assay type: biochemical
[5] = Reflex (autonomic) activity after nasal administration in human volunteers; assay type: in vivo; conditions: nasal 1.6 μg
Protocol: as §1

[6] = Nasal spray 0.5 μg versus vehicle in 14 women of reproductive age, physiologic parameters; assay type: in vivo, human; conditions: compared to vehicle
[7] = Ames reverse mutation assay
[8] = system: isolated human nasal chemosensory neurons; assay: Electrophysiology: inward currents in isolated human nasal chemosensory neurons; assay type: cell-based
[9] = system: nasal septal chemosensory mucosa; assay: Electrophysiology: depolarization of the nasal septal chemosensory mucosa; design: species or system human
[10] = Hot flashes in menopausal women after nasal administration; assay type: in vivo, human
Description: 16α,17α-Epoxy-10β-hydroxyestr-4-en-3-one decreased parasympathetic system tone resulting in increased sympathetic activity and stimulation of β2 adrenergic receptors in the bronchiole smooth muscle that induced bronchodilation; (b) increased skin conductance amplitude is the result of increased skin secretions, which are produced by preponderance of the sympathetic nervous system tone (or decreased parasympathetic tone); (c) decreased body temperature is explained by increased activity of the posterior (adrenergic) hypothalamus and decreased parasympathetic tone (anterior hypothalamus).

[11] = Preclinical pharmacokinetic studies, intravenous doses; assay type: in vivo, rats, rabbits, or dogs; conditions: single repeated intravenous doses up to 2.5 mg/kg
[12] = Nasal spray 1.6 μg in women of reproductive age, core body temperature and sympathoadrenergic tone; assay type: in vivo, human
Protocol: It also changed the tone of the sympathoadrenergic system (as assessed by measuring physiologic sinus arrhythmia) within 5 minutes of administration, and the effect persisted for 15 to 20 minutes.

[13] = assay type: in vivo, human
[14] = Preclinical pharmacokinetic studies, nasal doses; assay type: in vivo; conditions: repeated or single escalating nasal doses up to 100 μg/rat, 400 μg/rabbit, 600 μg/dog
[15] = Exploratory single-blind study in chronic migraine subjects (HAM-A, HAM-D, VRS, resting state fMRI)
[16] = In vivo bone marrow micronucleus test
glucocorticoid receptors = target: T3, glucocorticoid receptors (Homo sapiens, UniProt P04150); assay: In vitro agonist/antagonist activity on glucocorticoid receptors; assay type: biochemical
T3 sequence (P04150 1-777): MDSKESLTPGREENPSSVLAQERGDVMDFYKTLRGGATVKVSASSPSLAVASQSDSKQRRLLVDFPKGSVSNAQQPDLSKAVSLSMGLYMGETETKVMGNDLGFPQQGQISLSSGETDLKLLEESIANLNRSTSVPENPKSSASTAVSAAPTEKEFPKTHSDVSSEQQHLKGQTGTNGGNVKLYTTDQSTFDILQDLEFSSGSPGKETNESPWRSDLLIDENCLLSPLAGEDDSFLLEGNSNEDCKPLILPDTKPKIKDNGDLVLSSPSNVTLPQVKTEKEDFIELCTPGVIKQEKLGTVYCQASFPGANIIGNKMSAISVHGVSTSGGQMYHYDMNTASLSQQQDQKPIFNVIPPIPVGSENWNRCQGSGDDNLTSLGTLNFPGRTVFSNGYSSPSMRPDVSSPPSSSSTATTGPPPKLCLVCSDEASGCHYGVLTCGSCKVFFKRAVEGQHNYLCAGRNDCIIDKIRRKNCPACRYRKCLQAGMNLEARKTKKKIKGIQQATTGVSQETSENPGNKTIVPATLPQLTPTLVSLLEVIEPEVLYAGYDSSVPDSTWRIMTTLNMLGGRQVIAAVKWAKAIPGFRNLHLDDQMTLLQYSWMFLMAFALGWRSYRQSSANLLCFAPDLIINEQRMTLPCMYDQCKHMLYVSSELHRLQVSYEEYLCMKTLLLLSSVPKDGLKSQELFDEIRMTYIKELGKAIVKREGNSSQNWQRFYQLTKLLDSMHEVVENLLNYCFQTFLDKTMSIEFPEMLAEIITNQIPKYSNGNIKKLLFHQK

[17] = after single dose nasal administration
[18] = women with PMDD, nasal, versus placebo
[19] = migraine subjects, 6.4 μg nasal, relative to placebo

C[C@]12CC[C@H]3[C@@H](CCC4=CC(=O)CC[C@@]43O)[C@@H]1C[C@H]1O[C@H]12 [16α,17α-epoxy-10β-hydroxyestr-4-en-3-one]
effects on maternal or litter parameters [1]: no adverse effects on maternal or litter parameters | half effective dose of electrogram activation ([2]; human volunteers of both sexes): 0.087 µg | activation of the electrogram recorded from the nasal chemosensory mucosa ([2]; microgram quantities, volunteers of both sexes): concentration dependent activation | systemic exposure [3]: lack of systemic exposure | agonist or antagonist activity on progestin receptors (progestin receptors): no agonist or antagonist activity | agonist or antagonist activity on androgen receptors (androgen receptors): no agonist or antagonist activity | deaths, adverse clinical signs, effects on laboratory or pathology parameters ([4]; same nasal and intravenous doses, all species): no deaths or adverse clinical signs or effects on laboratory or pathology parameters observed | tolerability ([4]; single nasal up to 100 μg/rat, 400 μg/rabbit, 600 μg/dog, repeated nasal up to 50 μg/rat/day, 300 μg/dog/day, iv single and repeated up to 2.5 mg/kg, 28 day): well tolerated in all species tested | agonist or antagonist activity on estrogen receptors (estrogen receptors): no agonist or antagonist activity | body core temperature (external ear canal) [5]: decreased body core temperature | cardiac rate [5]: no significant change | depth of the inspiratory cycle of respiration [5]: significantly increased amplitude | latency of modulation of reflex activity after the electrogram [5]: 5 to 10 s | skeletal muscle tone (electromyogram, chin muscles) [5]: decreased skeletal muscle tone | skin conductance (electrodermal activity) ([5]; palmar surface of fourth and fifth finger): increased amplitude of the skin conductance | respiration rate ([5]; within physiologic range): decreased respiration rate | cardiac frequency [6]: not statistically significant increase | core body temperature [6]: statistically significant decreases | galvanic skin reflex [6]: statistically significant decreases | respiratory frequency [6]: statistically significant decreases | skeletal muscle tone [6]: statistically significant decreases | mutagenic or clastogenic potential [7]: no evidence of mutagenic or clastogenic potential | inward currents in isolated human nasal chemosensory neurons ([8]; isolated neurons): induced inward currents | concentration giving maximal response (amplitude) ([8]; response amplitude increased with concentration): 10^−7 to 10^−6 M | depolarization of the nasal septal chemosensory mucosa [9]: electrotonic depolarization | number, severity and bother of hot flashes [10]: decreased number, severity and bother of hot flashes | plasma concentrations, dose dependence [11]: dose-proportional | plasma concentrations, time course [11]: decreased rapidly | decrease in core body temperature [12]: 1±0.23 °C | latency of decrease in core body temperature [12]: 0.5 to 4 min | persistence of change of sympathoadrenergic tone [12]: 15 to 20 min | persistence of decrease in core body temperature [12]: 9 ± 2.5 min | time to change of sympathoadrenergic tone (physiologic sinus arrhythmia) [12]: ≤ 5 minutes | persistence of improvements [13, 17]: approximately 5 hours | time to appearance of improvements [13, 17]: ≤ 30 min | serious adverse events ([13]; in vivo): No serious adverse events were reported | side effects ([13]; in vivo): minimal and similar to administration of placebo | cortical behavioral symptoms (headache, tension) [13, 18]: significant improvements | hypothalamic behavioral symptoms (fatigue, anger, craving for foods) [13, 18]: significant improvements | limbic system behavioral symptoms (mood swings, depression, lack of interest) [13, 18]: significant improvements | systemic exposure [14]: very low systemic exposure | functional connectivity of the amygdala with the anterior occipital lobe and right middle occipital lobe (fMRI) [15, 19]: increased functional connectivity | functional connectivity of the hypothalamus with the anterior orbital gyrus, right medial orbital gyrus and pons (fMRI) [15, 19]: decreased functional connectivity | functional connectivity of the right thalamus with left orbitofrontal cortex, superior parietal lobe, left insular cortex and left primary motor cortex (fMRI) [15, 19]: decreased functional connectivity | functional connectivity of the right thalamus with the left somatosensory cortex (fMRI) [15, 19]: increased functional connectivity | tolerability ([15]; single nasal 6.4 μg, all three subjects): tolerated | mean decrease in headache pain intensity score (VRS, 6-point) relative to placebo ([15]; two migraine subjects, single nasal 6.4 μg, 15 minutes, p<0.01): 2.5 | anxiety scores (HAM-A) ([15]; two migraine subjects, single nasal 6.4 μg, p<0.01): significantly improved | depression scores (HAM-D) ([15]; two migraine subjects, single nasal 6.4 μg, not statistically significant): improvement trend | mutagenic or clastogenic potential [16]: no evidence of mutagenic or clastogenic potential | agonist or antagonist activity on glucocorticoid receptors (glucocorticoid receptors): no agonist or antagonist activity
